# Reference: paper PMC9569450, “Dual Effect of Tryptamine on Prostate Cancer Cell Growth Regulation: A Pilot Study” (International Journal of Molecular Sciences, 2022)
# Tests used:
# [1] = test system: PANC-1 cells; assay: Transwell migration assay, PANC-1; format: cell-based; settings: 24 h
# Description: (§1) Cell migration was evaluated using 8-μm transwell filters (Costar Corning, Schiphol-Rijk, The Netherlands). Cells at a density of 5 × 10^4 were seeded to the upper chamber, and the chamber was filled with FBS-free medium. Cells were incubated overnight to allow for adherence; then, the lower chamber was replaced with 10% FBS medium as a chemo-attractant. Following a 24 h incubation, non-migrating cells on the upper surface of the insert membrane were gently removed by cotton swabs and migrated cells on the lower surface of the insert membrane were fixed by 4% paraformaldehyde and stained with 0.1% crystal violet for 20 min. Migrated cells on each membrane were photographed and counted at 100× magnification field at six random fields.
# [2] = test system: A549 cells; assay: MTT cell proliferation assay, A549; format: cell-based; settings: Homo sapiens, A549, 48 h treatment in FBS-free medium, read-out: IC50 Value (Mean ± SD mM) A549
# Description: PC-3, LNCaP, RWPE-1, HepG2, A549, and PANC-1 cells were purchased from the National Collection of Authenticated Cell Cultures (Shanghai, China). […] All the above cell cultures were supplied with 10% fetal bovine serum and 1% penicillin-streptomycin. RWPE-1 cells were cultured in keratinocyte serum-free medium (K-SFM, Gibco, New York, NY, USA) supplemented with 50 mg/L bovine pituitary extract and 5 μg/L epidermal growth factor (EGF). All cell lines were grown in a humidified atmosphere of 5% CO2 at 37 °C.
# Cells were seeded in 100 μL complete medium in a 96-well plate, at a density of 10,000 cells/well for LNCaP and 5000 cells/well for other cells. Cells were pre-incubated for 24 h to allow for adherence before removal of complete medium and treatment with various concentrations of compounds in fetal bovine serum (FBS)-free medium for 48 h. After treatment, 20 μL/well MTT (5 mg/mL) was added and incubated for 3–4 h at 37 °C, and then 100 μL/well DMSO was added for MTT assay. The plate was shaken on an orbital shaker for 10 min. Absorbance was measured using a microplate reader at 492 nm for the MTT assay (performed in triplicates). Cell viability was normalized to control. Half inhibitory concentration (IC50) was calculated by SPSS Statistics 17.0. […] The experiments were independently repeated two to three times.
# [3] = test system: PC-3 xenograft tumors; assay: PC-3 xenograft mouse model; format: in vivo
# Description: Five-week-old male BALB/c nude mice were purchased from Charles River Laboratories (Beijing, China) and raised in a temperature and humidity-controlled environment (25 ± 2 °C, 50% ± 10% humidity) with a standard 12 h light-dark cycle with food and water in cages under germ-free conditions (SCXK2021-0006). All procedures involving animals and their care were approved by the Institutional Animal Care and Use Committee of the Ocean University of China in accordance with institutional and National Institutes of Health guidelines (OUC-SMP-2022-01-01). PC-3 cells (4 × 10^6 dissolved in 150 μL PBS) were injected subcutaneously into the armpit area of each mouse. For the first treatment group, when tumors reached 50 mm^3, 80 mg/kg of tryptamine dissolved in normal saline with 0.1% formic acid was administered intraperitoneally once every other day for 32 days (n = 6). […] The control groups were administrated with the vehicle. The tumor volume (mm^3) was calculated based on the formula:(2) Tumor volume (mm^3)=length×width^2/2
# [4] = test system: PC-3 cells; assay: Transwell migration assay, PC-3; format: cell-based, human; settings: 24 h
# Description: as §1
# [5] = UPLC-HRMS detection of tryptamine in serum or tissue samples of xenograft mice; format: in vivo, BALB/c nude mice
# Description: However, intraperitoneal injection of tryptamine promoted the growth of PC-3 xenograft tumors in nude mice. […] Additionally, it has been reported that the intraperitoneal injections of 10 mg/kg 5-HT increased tumor weight by almost 60% using an orthotopic mouse model of ovarian cancer. As is known, both 5-HT and tryptamine in the blood can be taken up and carried by platelets and released during degranulation, and also various tryptamine-related compounds are substrates of the platelet 5-HT transporter. Thus, the tumor growth promoting effect of intraperitoneal treatment of tryptamine in our study might be similar to the effect of 5-HT, which has long been thought to be related to tumor progression.
# [6] = test system: PC-3 cells; assay: Cell viability of PC-3 cells after 24 h (Figure S1); format: cell-based, human
# Description: Figure S1. Cell viability of PC-3 cell treated with various concentrations of tryptamine […]
# Figure S2. Liver function test results and effects of tryptamine and 3-HAA treatments on the tumor growth of PC-3 xenograft mouse model. (A and B) Appearance and aspartate aminotransferase (AST, U/L) value of the liver of PC-3 xenograft mice received intraperitoneal administration of tryptamine (80 mg/kg, n = 6) and intratumoral administration of tryptamine (1 mg/100 mm3, n = 5), respectively. Size of the tumors of PC-3 xenograft mice received intratumoral administration of (C and E) tryptamine (1 mg/100 mm3) and 3-HAA (200 mg/kg) and intraperitoneal administration of (D and F) tryptamine (80 mg/kg) and 3-HAA (200 mg/kg), respectively.
# Figure S3. Heatmap overview of altered PC-3 cell metabolic profiles in LC-MS (A) positive and (B) negative ion modes before and after tryptamine treatment.
# Figure S4. MS/MS analyses of the discriminant metabolites in panels.
# Figure S1. Cell viability of PC-3 cell treated with various concentrations of tryptamine for 24h. […]
# [7] = test system: HepG2 cells; assay: Transwell migration assay, HepG2; format: cell-based; settings: 24 h
# Description: as §1
compound,measurement,setting,value
NCCc1c[nH]c2ccccc12 [Tryptamine],migrated cells reduced by,"[1]; PANC-1, 0.075 mM",43%
same,percentage of migrated cells,"[1]; PANC-1, 0.15 mM",45%
same,percentage of migrated cells,"[1]; PANC-1, 0.3 mM",27%
same,IC50,[2],0.46 ± 0.01 mM
same,tumor volume and weight compared with the control group,"[3]; intraperitoneal, 80 mg/kg once every other day for 32 days",increased tumor volume and weight
same,adverse effects or toxicity in the liver,"[3]; intratumoral, 1 mg/100 mm^3",without obvious signs of adverse effects or toxicity in the liver
same,"tumor growth, tumor volume and weight","[3]; intratumoral, 1 mg/100 mm^3 every day for 16 days",significant tumor growth delay
same,migrated cells reduced by,"[4]; PC-3, 0.075 mM",22%
same,percentage of migrated cells,"[4]; PC-3, 0.15 mM",58%
same,percentage of migrated cells,"[4]; PC-3, 0.3 mM",23%
same,tryptamine in serum or tissue samples,[5]; intraperitoneal treatment group,not detected
same,tryptamine in tissue samples,[5]; intratumoral treatment group,apparent peak
same,viability at 300 µM,"[6]; Homo sapiens, PC-3, 0.3 mM, read-out: percentage of viable cells",75%
same,cell viability compared to the control group,"[6]; PC-3, 0.15 mM",no significant change in cell viability
same,migrated cells compared with the control,"[7]; HepG2, 0.075 mM",no significant difference
same,percentage of migrated cells,"[7]; HepG2, 0.15 mM",77%
same,percentage of migrated cells,"[7]; HepG2, 0.3 mM",55%
